Assay results reported in patent US9212151B2, “Heterocyclic compounds useful for kinase inhibition” (Amitech Therapeutic Solutions, Inc., priority 2010, dated 2015).

Assay: MTT cell viability assay, compounds at 5, 1 and 0.2 μM, 48 hours
Assay type: cell-based
Settings: human, A549 tumor cells
Procedure: MTT assay is used to determine cell proliferation, percent of viable cells, and cytotoxicity. MTT (3-[4,5-dimethylthiazol-2-yl]2,5-diphenyltetrazolium bromide) is a yellow dye, which can be absorbed by the living cells and be reduced to purplish blue formazan crystals by succinate tetrazolium reductase in mitochondria. Formazan formation can therefore be used to assess and determine the survival rate of cells.
Tumor cells (A549) were plated at 2500 cells/well of a 96-well plate in complete growth medium (DMEM+10% FBS, antibiotic/antimycotic, fungizone, L-glutamine, sodium pyruvate, and non-essential amino acids). The cells were allowed to grow overnight. After cell proliferation, the cells were washed and re-suspended in fresh culture medium and placed in 96 well plates.
To each of the 96 well plates containing A549 and a control, 5, 1, and 0.2 μM of the exemplary compounds 1-200 were add. The 96 well plates were incubated for 48 hours. Cell viability was measured by adding MTT (Sigma) at 5 mg/ml for 4 h to the cells and then removing the medium and resuspending each well in 50 μl DMSO to solubilize the crystals. The 96-well plates were read on a plate-scanning spectrophotometer (BioTek) at an absorbance of […]. The survival rate of cells was calculated based on the measurement of absorption at the 570 nm wavelength by enzyme immunoassay analyzer.

| Compound | viability at 48 h, 0.2 µM (0.2 μM) | viability at 48 h, 1 µM (1 μM) | viability at 48 h, 5 µM (5 μM) | viability at 48 h, 0.2 µM (0.2 μM compound) | viability at 48 h, 1 µM (1 μM compound) | viability at 48 h, 5 µM (5 μM compound) |
| --- | --- | --- | --- | --- | --- | --- |
| CCc1nc(N)cc(Oc2ccc(-c3nnc(Nc4cccc(C(F)(F)F)c4)[nH]3)cc2)n1 [Compound 81] | > 70% | 50 to 70% | < 50% |  |  |  |
| COc1ccc2c(Oc3cccc(-c4nnc(Nc5cccc(C(F)(F)F)c5)o4)c3)ccnc2c1 [Compound 41] | > 70% | > 70% | > 70% |  |  |  |
| CCOc1nc(N)cc(Oc2ccc(-c3nnc(Nc4cccc(C(F)(F)F)c4)[nH]3)cc2)n1 [Compound 79] | > 70% | < 50% | < 50% |  |  |  |
| CNC(=O)CSc1nc(N)cc(Oc2ccc(-c3nnc(Nc4cccc(C(F)(F)F)c4)[nH]3)cc2)n1 [Compound 117] | > 70% | > 70% | > 70% |  |  |  |
| COCCOc1cc(Oc2ccc(-c3nnc(Nc4cccc(C(F)(F)F)c4)[nH]3)cc2)nc(N)n1 [Compound 53] | > 70% | > 70% | < 50% |  |  |  |
| CSc1nc(N)cc(Oc2ccc(-c3nnc(Nc4cccc(Cl)c4)[nH]3)cc2)n1 [Compound 133] | > 70% | < 50% | < 50% |  |  |  |
| FC(F)(F)c1cccc(Nc2nnc(-c3ccc(Oc4ccncc4)cc3Cl)[nH]2)c1 [Compound 111] | > 70% | > 70% | > 70% |  |  |  |
| CN(C)c1cc(Oc2ccc(-c3nnc(Nc4cccc(C(F)(F)F)c4)[nH]3)cc2)c2ccccc2n1 [Compound 196] |  |  |  | > 70% | > 70% | 50 to 70% |
| FC(F)(F)c1cccc(Nc2nnc(-c3ccc(Oc4nccc5ccccc45)cc3)[nH]2)c1 [Compound 149] | > 70% | > 70% | 50 to 70% |  |  |  |
| FC(F)(F)c1cccc(Nc2nnc(-c3cccc(Oc4ncnc5[nH]ccc45)c3)o2)c1 [Compound 60] | > 70% | > 70% | > 70% |  |  |  |
| NS(=O)(=O)c1cnccc1Oc1ccc(-c2nnc(Nc3cccc(C(F)(F)F)c3)o2)cc1 [Compound 31] | > 70% | > 70% | > 70% |  |  |  |
| CS(=O)(=O)c1nc(N)cc(Oc2ccc(-c3nnc(Nc4cccc(C(F)(F)F)c4)[nH]3)cc2)n1 [Compound 64] | > 70% | > 70% | > 70% |  |  |  |
| Nc1cc(Oc2ccc(-c3nnc(Nc4cccc(C(F)(F)F)c4)[nH]3)cc2)ccn1 [Compound 4] | > 70% | > 70% | 50 to 70% |  |  |  |
| COc1ccc2c(Oc3ccc(-c4nnc(Nc5cccc(C(F)(F)F)c5)s4)cc3)ccnc2c1 [Compound 46] | > 70% | > 70% | < 50% |  |  |  |
| CSc1nc(N)cc(Oc2ccc(-c3nnc(Nc4ccc(C)c(C)c4)[nH]3)cc2)n1 [Compound 125] | > 70% | > 70% | < 50% |  |  |  |
| FC(F)(F)c1cccc(Nc2nnc(-c3cccc(Oc4ncnc5[nH]ccc45)c3)[nH]2)c1 [Compound 21] | > 70% | > 70% | > 70% |  |  |  |
| Cc1nc(N)cc(Oc2cccc(-c3nnc(Nc4cccc(C(F)(F)F)c4)[nH]3)c2)n1 [Compound 100] | > 70% | > 70% | > 70% |  |  |  |
| NCCSc1nc(N)cc(Oc2ccc(-c3nnc(Nc4cccc(C(F)(F)F)c4)[nH]3)cc2)n1 [Compound 62] | > 70% | > 70% | > 70% |  |  |  |
| Nc1cc(Oc2ccc(-c3nnc(Nc4cccc(C(F)(F)F)c4)[nH]3)cc2)ncn1 [Compound 2] | > 70% | > 70% | > 70% |  |  |  |
| NS(=O)(=O)c1cnccc1Oc1ccc(-c2nnc(Nc3cccc(C(F)(F)F)c3)[nH]2)cc1 [Compound 7] | > 70% | > 70% | > 70% |  |  |  |
| FC(F)(F)c1cccc(Nc2nnc(-c3ccc(Oc4ccncc4)cc3)[nH]2)c1 [Compound 3] | > 70% | 50 to 70% | < 50% |  |  |  |
| CSc1nc(N)cc(Oc2ccc(-c3nnc(Nc4cc(C)ccc4C)[nH]3)cc2)n1 [Compound 67] | 50 to 70% | < 50% | < 50% |  |  |  |
